Test results reported in ChEMBL document CHEMBL5150071, “BAY-7081: A Potent, Selective, and Orally Bioavailable Cyanopyridone-Based PDE9A Inhibitor” (J Med Chem, 2022).
Blank lines part the entries; values can stand above or below the compound they belong to. Calls of active or inactive are those of the source. The calls are words filed in the database; no cut-off is given here.

Columns and labels:
[1] = Drug metabolism in rat hepatocytes assessed as glucuronidation at 10 uM incubated for 30 mins by LC-MS/MS analysis; format: ADME, cell-based, Hepatocyte; conditions: 0.5 h
[2] = target: High affinity cGMP-specific 3',5'-cyclic phosphodiesterase 9A (Homo sapiens, UniProt O76083); assay: Inhibition of full length human PDE9A expressed in Sf9 insect cells using [3H]-cGMP as substrate incubated for 60 mins by microbeta scintillation counter analysis
Chain of High affinity cGMP-specific 3',5'-cyclic phosphodiesterase 9A (Homo sapiens, UniProt O76083) (O76083 whole entry): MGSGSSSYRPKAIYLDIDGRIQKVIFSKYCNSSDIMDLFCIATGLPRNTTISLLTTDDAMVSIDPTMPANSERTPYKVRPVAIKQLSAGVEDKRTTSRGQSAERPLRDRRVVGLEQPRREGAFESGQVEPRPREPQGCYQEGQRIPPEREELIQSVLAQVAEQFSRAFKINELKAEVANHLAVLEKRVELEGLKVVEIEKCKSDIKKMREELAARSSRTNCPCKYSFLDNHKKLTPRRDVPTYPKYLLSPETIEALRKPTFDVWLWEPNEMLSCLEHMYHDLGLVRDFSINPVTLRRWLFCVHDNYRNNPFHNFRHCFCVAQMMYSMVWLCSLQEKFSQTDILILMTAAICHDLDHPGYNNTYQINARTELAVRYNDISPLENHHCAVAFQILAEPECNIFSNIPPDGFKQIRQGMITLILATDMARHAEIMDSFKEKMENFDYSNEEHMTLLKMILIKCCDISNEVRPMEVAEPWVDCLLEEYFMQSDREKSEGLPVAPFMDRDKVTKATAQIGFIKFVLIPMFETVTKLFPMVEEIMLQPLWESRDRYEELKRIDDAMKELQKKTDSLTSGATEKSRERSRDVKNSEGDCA

[3] = Selectivity index, ratio of IC50 for bovine brain PDE1 to IC50 for full length human PDE9A
[4] = Blood clearance in Wistar rat at 1 mg/kg, po or 0.3 mg/kg, iv measured over 24 hrs by LC-MS/MS analysis; format: ADME, organism-based; conditions: in vivo
[5] = Volume of distribution at steady state in Wistar rat at 1 mg/kg, po or 0.3 mg/kg, iv measured over 24 hrs by LC-MS/MS analysis; format: ADME, organism-based; conditions: in vivo
[6] = MRT in Wistar rat at 0.3 mg/kg, iv measured over 24 hrs by LC-MS/MS analysis; format: ADME, organism-based; conditions: in vivo
[7] = Oral bioavailability in Wistar rat at 1 mg/kg measured over 24 hrs by LC-MS/MS analysis; format: ADME, organism-based; conditions: in vivo
[8] = Blood clearance in dog at 1 mg/kg, po or 0.3 mg/kg, iv measured over 24 hrs by LC-MS/MS analysis; format: ADME, organism-based, Canis lupus familiaris; conditions: in vivo
[9] = Volume of distribution at steady state in dog at 1 mg/kg, po or 0.3 mg/kg, iv measured over 24 hrs by LC-MS/MS analysis; format: ADME, organism-based, Canis lupus familiaris; conditions: in vivo
[10] = MRT in dog at 0.3 mg/kg, iv measured over 24 hrs by LC-MS/MS analysis; format: ADME, organism-based, Canis lupus familiaris; conditions: in vivo
[11] = Oral bioavailability in dog at 1 mg/kg measured over 24 hrs by LC-MS/MS analysis; format: ADME, organism-based, Canis lupus familiaris; conditions: in vivo
[12] = Solubility of compound in PBS at pH 7 incubated for 24 hrs by UV based HPLC analysis; format: physicochemical; conditions: buffer, pH 7, 24 h
[13] = Protein binding in rat plasma assessed as fraction unbound incubated for 6 hrs by LC-MS/MS analysis; format: ADME, cell-free
[14] = Protein binding in human plasma assessed as fraction unbound incubated for 6 hrs by LC-MS/MS analysis; format: ADME, cell-free
[15] = target: T1, High affinity cGMP-specific 3',5'-cyclic phosphodiesterase 9A (Mus musculus, UniProt O70628); assay: Inhibition of mouse PDE9A expressed in recombinant CHO cells coexpressing soluble guanylate cyclase incubated for 6 mins by [3H]-cGMP scintillation proximity assay; format: cell-based
T1 sequence (O70628 whole entry): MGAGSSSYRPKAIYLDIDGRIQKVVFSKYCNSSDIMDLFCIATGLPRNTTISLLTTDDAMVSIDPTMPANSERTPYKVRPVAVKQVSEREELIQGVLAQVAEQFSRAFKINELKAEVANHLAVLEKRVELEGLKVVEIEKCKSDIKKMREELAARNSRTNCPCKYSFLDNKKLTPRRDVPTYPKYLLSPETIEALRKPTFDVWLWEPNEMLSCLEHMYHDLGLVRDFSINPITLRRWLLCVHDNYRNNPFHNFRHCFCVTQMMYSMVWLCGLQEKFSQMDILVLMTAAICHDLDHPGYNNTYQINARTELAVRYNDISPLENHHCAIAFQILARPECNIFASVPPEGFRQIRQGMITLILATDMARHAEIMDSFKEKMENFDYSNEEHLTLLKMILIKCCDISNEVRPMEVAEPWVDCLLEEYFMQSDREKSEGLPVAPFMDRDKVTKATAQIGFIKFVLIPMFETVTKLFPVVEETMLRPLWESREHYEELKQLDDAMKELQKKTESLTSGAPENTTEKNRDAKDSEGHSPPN

[16] = Protein binding in mouse plasma assessed as fraction unbound incubated for 6 hrs by LC-MS/MS analysis; format: ADME, cell-free
[17] = Protein binding in dog plasma assessed as fraction unbound incubated for 6 hrs by LC-MS/MS analysis; format: ADME, cell-free, Canis lupus familiaris
[18] = Protein binding in monkey plasma assessed as fraction unbound incubated for 6 hrs by LC-MS/MS analysis; format: ADME, cell-free, Macaca mulatta; conditions: rhesus monkey
Cytochrome P450 2C9 = Cytochrome P450 2C9 (Homo sapiens, UniProt P11712); assay: Inhibition of CYP2C9 in human liver microsomes using diclofenac as substrate by LC-MS/MS analysis; format: ADME, Microsome
Chain of Cytochrome P450 2C9 (P11712 whole entry): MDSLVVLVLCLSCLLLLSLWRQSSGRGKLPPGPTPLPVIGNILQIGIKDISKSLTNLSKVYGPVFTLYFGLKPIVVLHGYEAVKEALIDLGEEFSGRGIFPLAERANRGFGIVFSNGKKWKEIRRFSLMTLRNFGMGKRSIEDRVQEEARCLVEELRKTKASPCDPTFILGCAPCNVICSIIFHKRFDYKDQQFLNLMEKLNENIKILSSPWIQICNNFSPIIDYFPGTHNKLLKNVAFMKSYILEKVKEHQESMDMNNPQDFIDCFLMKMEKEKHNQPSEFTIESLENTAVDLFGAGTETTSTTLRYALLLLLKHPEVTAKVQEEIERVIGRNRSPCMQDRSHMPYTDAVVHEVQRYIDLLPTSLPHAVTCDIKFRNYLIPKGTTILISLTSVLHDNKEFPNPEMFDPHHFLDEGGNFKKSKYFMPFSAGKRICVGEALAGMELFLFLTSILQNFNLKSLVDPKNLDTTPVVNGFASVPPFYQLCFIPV

[19] = Induction of CYP3A4 mRNA expression in human hepatocytes at 9.2 uM incubated for 48 hrs with media replacement for […] by qPCR analysis; format: ADME, cell-based, Hepatocyte
[20] = Stability in human hepatocytes assessed as drug degradation incubated for 4 hrs; format: ADME, cell-based, Hepatocyte
[21] = Toxicity in rat assessed as increase in blood pressure at 5 to 40 mg/kg, po administered once daily via gavage and measured every 5 mins by telemetry system based analysis; format: organism-based; conditions: in vivo, dose 5-40 mg/kg
[22] = Toxicity in rat assessed as increase in heart rate at 5 to 40 mg/kg, po administered once daily via gavage and measured every 5 mins by telemetry system based analysis; format: organism-based; conditions: in vivo, dose 5-40 mg/kg
Homo sapiens [23] = species on record: Homo sapiens; assay: Selectivity index, ratio of IC50 for full length human PDE2A to IC50 for full length human PDE9A
Homo sapiens [24] = species on record: Homo sapiens; assay: Selectivity index, ratio of IC50 for full length human PDE3B to IC50 for full length human PDE9A
Homo sapiens [25] = species on record: Homo sapiens; assay: Selectivity index, ratio of IC50 for human platelet PDE5A to IC50 for full length human PDE9A
Homo sapiens [26] = species on record: Homo sapiens; assay: Selectivity index, ratio of IC50 for full length human PDE7B to IC50 for full length human PDE9A
Homo sapiens [27] = species on record: Homo sapiens; assay: Selectivity index, ratio of IC50 for full length human PDE8A to IC50 for full length human PDE9A
Homo sapiens [28] = species on record: Homo sapiens; assay: Selectivity index, ratio of IC50 for full length human PDE10A to IC50 for full length human PDE9A
Homo sapiens [29] = species on record: Homo sapiens; assay: Selectivity index, ratio of IC50 for full length human PDE11A to IC50 for full length human PDE9A
Homo sapiens [30] = species on record: Homo sapiens; assay: Selectivity index, ratio of IC50 for full length human PDE4B to IC50 for full length human PDE9A
[31] = Selectivity index, ratio of IC50 for bovine PDE6 to IC50 for full length human PDE9A
[32] = target: T2, High affinity cGMP-specific 3',5'-cyclic phosphodiesterase 9A (Mus musculus) (UniProt O70628); assay: Inhibition of mouse PDE9A using [3H]-cGMP as substrate at 34 nM incubated for 60 mins by microbeta scintillation counter analysis relative to control
T2 sequence (whole entry): T1 sequence (O70628 whole entry)

[33] = target: T3, High affinity cGMP-specific 3',5'-cyclic phosphodiesterase 9A (Rattus norvegicus) (UniProt Q8QZV1); assay: Inhibition of rat PDE9A using [3H]-cGMP as substrate at 42 nM incubated for 60 mins by microbeta scintillation counter analysis relative to control
T3 sequence (whole entry): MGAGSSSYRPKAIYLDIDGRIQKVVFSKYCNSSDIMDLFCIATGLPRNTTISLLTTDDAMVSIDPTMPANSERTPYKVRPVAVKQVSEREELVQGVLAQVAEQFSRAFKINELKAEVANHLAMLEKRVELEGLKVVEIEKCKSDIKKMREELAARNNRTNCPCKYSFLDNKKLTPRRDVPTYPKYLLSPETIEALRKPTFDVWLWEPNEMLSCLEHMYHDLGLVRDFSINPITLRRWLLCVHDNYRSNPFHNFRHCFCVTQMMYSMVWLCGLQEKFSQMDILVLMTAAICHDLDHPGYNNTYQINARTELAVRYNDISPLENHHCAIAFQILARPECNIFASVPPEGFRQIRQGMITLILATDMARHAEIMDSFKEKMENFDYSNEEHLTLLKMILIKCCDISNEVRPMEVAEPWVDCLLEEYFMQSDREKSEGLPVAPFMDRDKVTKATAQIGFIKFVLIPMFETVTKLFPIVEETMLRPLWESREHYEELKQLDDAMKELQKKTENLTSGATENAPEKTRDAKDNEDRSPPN

Rattus norvegicus [34] = assay: In vivo inhibition of PDE9A in Sprague-Dawley rat assessed as increase in cGMP level in urine at 40 mg/kg, po measured after 85 mins by ELISA; format: functional, organism-based
Rattus norvegicus [35] = assay: In vivo inhibition of PDE9A in Sprague-Dawley rat assessed as increase in cGMP level in urine at 10 to 50 mg/kg, po measured after 85 mins by ELISA; format: functional, organism-based; conditions: dose 10-50 mg/kg
[36] = Toxicity in rat assessed as increase in blood pressure at 10 to 50 mg/kg, po administered twice daily via gavage and measured every 5 mins by telemetry system based analysis; format: organism-based; conditions: in vivo, dose 10-50 mg/kg
[37] = Toxicity in rat assessed as increase in heart rate at 10 to 50 mg/kg, po administered twice daily via gavage and measured every 5 mins by telemetry system based analysis; format: organism-based; conditions: in vivo, dose 10-50 mg/kg
Mus musculus [38] = assay: In vivo inhibition of PDE9A in mouse myocardial hypertrophy model with transverse aortic constriction assessed as reduction of hypertrophy of the left atrium at 10 mg/kg administered twice daily for 5 weeks; format: functional, organism-based
Mus musculus [39] = assay: In vivo inhibition of PDE9A in mouse myocardial hypertrophy model with transverse aortic constriction assessed as improvement of heart function at 10 mg/kg administered twice daily for 5 weeks; format: functional, organism-based
Mus musculus [40] = assay: In vivo inhibition of PDE9A in mouse myocardial hypertrophy model with transverse aortic constriction assessed as reduction in minimal diastolic left ventricular pressure at 10 mg/kg administered twice daily for 5 weeks; format: functional, organism-based

Drug metabolism [1]: Metabolite_Detected
Compound: Cc1ccc(-c2c3c([nH]c(=O)c2C#N)C(C(C)C)CNC3)cc1.Cl (racemic)

Drug metabolism [1]: Metabolite_Detected
Compound: COCC1CCCc2c1[nH]c(=O)c(C#N)c2-c1ccc(C)cc1 (racemic)

Compound: CCCCC1CCCc2c1[nH]c(=O)c(C#N)c2-c1ccc(C)cc1 (racemic)
IC50 [2]: 0.035 µM

Compound: CCCC1CNCc2c1[nH]c(=O)c(C#N)c2N1CCC(C)CC1 (racemic)
IC50 [2]: 0.2 µM

Compound: CCCC1CNCc2c1[nH]c(=O)c(C#N)c2N1CCC2(CCOC2)CC1 (racemic)
IC50 [2]: 0.013 µM
Ratio IC50 [3]: 12

Compound: CCCC1CNCc2c1[nH]c(=O)c(C#N)c2N1CCC2(CC1)CC2(F)F (racemic)
Ratio IC50 [3]: 30

Compound: CCCC1CNCc2c1[nH]c(=O)c(C#N)c2N1CCC2(CC1)CC2 (stereo in doubt; form 1)
IC50 [2]: > 10 µM

Compound: CCCC1CNCc2c1[nH]c(=O)c(C#N)c2N1CCC2(CC1)CC2.Cl (stereo in doubt; form 2)
IC50 [2]: 0.015 µM
CL [4]: 2.4 L/h/kg
Vdss [5]: 4.5 L/kg
MRT [6]: 1.9 h
F ([7]; po, 1 mg/kg, 24 h): 61%
CL [8]: 0.9 L/h/kg
Vdss [9]: 3 L/kg
MRT [10]: 4 h
F [11]: 80%
solubility [12]: > 0.5 mg/mL
Fu [13]: 20%
Fu [14]: 34%
EC50 [15]: 1 µM
Fu [16]: 41%
Fu [17]: 43%
Fu [18]: 42%
IC50 (Cytochrome P450 2C9): 16 µM
Activity [19]: Active
Stability [20]: Stable
Activity [21]: Non-Toxic
Activity [22]: Non-Toxic

Compound: CCCC1CNCc2c1[nH]c(=O)c(C#N)c2N1CCC2(CC1)CC2 (stereo in doubt; form 2)
Ratio IC50 [3]: 49
Ratio IC50 (Homo sapiens [23]): > 650
Ratio IC50 (Homo sapiens [24]): > 650
Ratio IC50 (Homo sapiens [25]): 143
Ratio IC50 (Homo sapiens [26]): > 650
Ratio IC50 (Homo sapiens [27]): 97
Ratio IC50 (Homo sapiens [28]): > 650
Ratio IC50 (Homo sapiens [29]): 430
Ratio IC50 (Homo sapiens [30]): 238
Ratio IC50 [31]: 101
inhibition [32]: 50%
inhibition [33]: 50%
inhibition (Rattus norvegicus [34]): Active

CL [4]: 3 L/h/kg
Vdss [5]: 2.2 L/kg
MRT [6]: 0.8 h
bioavailability ([7]; Wistar): 41%
CL [8]: 0.5 L/h/kg
Vdss [9]: 1.5 L/kg
MRT [10]: 3.1 h
F [11]: 38%
Compound: C[C@@H]1CN(Cc2ncccn2)C[C@H]1c1nc2c(cnn2C2CCOCC2)c(=O)[nH]1 [EDELINONTRINE]
inhibition (Rattus norvegicus [35]): Active
Activity [36]: Non-Toxic
Activity [37]: Non-Toxic
inhibition (Mus musculus [38]): Active
inhibition (Mus musculus [39]): Active
inhibition (Mus musculus [40]): Active
